From US8106055B2, “Substituted amide compounds” (Gruenenthal GmbH, priority 2007, dated 2012)

These compounds were tested against T1, human bradykinin 1 receptor (B1R) (Homo sapiens, UniProt P46663) (assay: Functional investigation on the human bradykinin 1 receptor (B1R), Ca2+ FLIPR assay in CHO K1 hB1R cells). Settings: B1R antagonism human; test substance 10 μM; Ca2+ FLIPR, CHO K1 hB1R cells.
T1 construct: expressed in transfected cells; host or cells: CHO K1 cells
T1 sequence (P46663 1-353): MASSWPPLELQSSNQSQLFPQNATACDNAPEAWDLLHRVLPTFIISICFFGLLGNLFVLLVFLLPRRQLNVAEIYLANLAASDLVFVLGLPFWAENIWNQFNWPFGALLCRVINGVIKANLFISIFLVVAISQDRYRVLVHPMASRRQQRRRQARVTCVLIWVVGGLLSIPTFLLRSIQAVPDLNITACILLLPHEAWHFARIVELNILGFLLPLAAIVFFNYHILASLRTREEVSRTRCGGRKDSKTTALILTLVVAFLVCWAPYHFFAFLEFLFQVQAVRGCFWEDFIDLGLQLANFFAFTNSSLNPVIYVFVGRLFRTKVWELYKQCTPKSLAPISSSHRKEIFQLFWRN
Format: cell-based
Outline: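 Fluo-4 Ca2+ readout, peak fluorescence. Stable CHO K1 transfectants; compound pre-incubated 10-20 min, then EC80 agonist—Lys-Des-Arg9-BK for hB1R, Des-Arg9-BK for rB1R. % inhibition vs maximal inhibition; IC50 from multiple concentrations, duplicate/triplicate, ≥2 independent runs.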

| Compound | B1R Ant. h [10 μM] % Inhibition [%] |
| --- | --- |
| CN(C)C(c1ccc(Cl)cc1)C1CCC(CCNC(=O)COCCN(C)S(=O)(=O)c2c(Cl)cccc2Cl)CC1 (stereo not drawn) [Example 274] | 100 |
| CN(C)C(c1ccc(Cl)cc1)C1CCC(CCNC(=O)COCCN(C)S(=O)(=O)c2ccc(F)cc2)CC1 (stereo not drawn) [Example 241] | 29 |
| CN(C)C(c1cccc(F)c1)C1CCC(CCNC(=O)COCCN(C)S(=O)(=O)c2ccc(OC(F)(F)F)cc2)CC1 (stereo not drawn) [Example 215] | 1 |
| CN(C)C(c1ccc(Cl)cc1)C1CCC(CNC(=O)COCCN(C)S(=O)(=O)c2c(Cl)cccc2Cl)CC1 (stereo not drawn) [Example 207] | 104 |
| CN(C)C(c1cccc(F)c1)C1CCC(NC(=O)COCCN(C)S(=O)(=O)c2ccc(Cl)cc2Cl)CC1 (stereo not drawn) [Example 217] | 85 |
| CN(C)C(c1ccc(F)cc1)C1CCC(CCNC(=O)COC2CCCCC2N(C)S(=O)(=O)c2ccc(Cl)c(Cl)c2)CC1 (stereo not drawn) [Example 244] | 21 |
| CN(C)C(c1cccc(F)c1)C1CCC(CNC(=O)COC2CCN(S(=O)(=O)c3ccc(Cl)cc3Cl)C2)CC1 (stereo not drawn) [Example 225] | 51 |
| Cc1ccc(S(=O)(=O)N(C)CCOCC(=O)NC2CCC(C(c3cccs3)N(C)C)CC2)cc1 (stereo not drawn) [Example 168, N-(4-((dimethylamino) (thiophen-2-yl)methyl)cyclohexyl)-2-(2-(N,4-dimethylphenylsulfamido)ethoxy)acetamide] | −5 |
| CN(C)C(c1ccc(Cl)cc1)C1CCC(CNC(=O)COCCN(C)S(=O)(=O)c2ccc(F)cc2)CC1 (stereo not drawn) [Example 263] | 18 |
| COc1ccc(S(=O)(=O)N(C)CCOCC(=O)NCC2CCC(C(c3ccccc3)N(C)C)CC2)cc1 (stereo not drawn) [Example 242] | 39 |
| CN(C)C(c1cccs1)C1CCC(CCNC(=O)COC2CCCCC2N(C)S(=O)(=O)c2ccc(Cl)c(Cl)c2)CC1 (stereo not drawn) [Example 214] | −2 |
| CN(C)C(c1cccc(F)c1)C1CCC(CCNC(=O)COC2CCN(S(=O)(=O)c3ccc(Cl)cc3Cl)C2)CC1 (stereo not drawn) [Example 259] | 72 |
| COc1ccc(S(=O)(=O)N2CCCCC2CCOCC(=O)NCC2CCC(C(c3cccc(F)c3)N(C)C)CC2)cc1 (stereo not drawn) [Example 203] | 42 |
| CN(C)C(c1ccccc1)C1CCC(NC(=O)COCC2CCCN2S(=O)(=O)c2c(Cl)cc(Cl)cc2Cl)CC1 (stereo not drawn) [Example 613, N-[4-(Dimethylaminophenylmethyl)-cyclohexyl]-2-[1-(2,4,6-trichlorobenzenesulfonyl)-pyrrolidin-2-ylmethoxy]-acetamide] | 66 |
| COc1ccc(S(=O)(=O)N(C)CCOCC(=O)NC2CCC(C(c3cccs3)N(C)C)CC2)cc1OC (stereo not drawn) [Example 206] | −5 |
| CN(C)C(c1ccc(F)cc1)C1CCC(NC(=O)COC2CCCCC2N(C)S(=O)(=O)c2ccc(Cl)c(Cl)c2)CC1 (stereo not drawn) [Example 256] | 52 |
| CN(C)C(c1cccc(F)c1)C1CCC(NC(=O)COCC2CCCN(S(=O)(=O)c3ccccc3)C2)CC1 (stereo not drawn) [Example 266] | 4 |
| CN(C)C(c1cccc(F)c1)C1CCC(CNC(=O)COCCN(C)S(=O)(=O)c2ccc(F)cc2)CC1 (stereo not drawn) [Example 229] | 7 |
| COc1ccc(S(=O)(=O)N2CCCC2COCC(=O)NCCC2CCC(C(c3cccc(F)c3)N(C)C)CC2)cc1 (stereo not drawn) [Example 224] | 34 |
| Cc1ccc(S(=O)(=O)N(C)CCOCC(=O)NC2CCC(C(c3cccc(F)c3)N(C)C)CC2)cc1 (stereo not drawn) [Example 226] | −4 |
| CN(C)C(c1cccc(F)c1)C1CCC(NC(=O)COCCN(C)S(=O)(=O)c2ccc(F)cc2)CC1 (stereo not drawn) [Example 205] | −11 |
